Drawing on ChEMBL document CHEMBL3603805, “Novel metal chelating molecules with anticancer activity. Striking effect of the imidazole substitution of the histidine-pyridine-histidine system” (Bioorg Med Chem, 2015), this text covers Activity and Stability for six molecules.

One series relates to Escherichia coli. Description: Induction of DNA cleavage in Escherichia coli supercoiled pUC19 DNA assessed as formation of nicked form II DNA using FeSO4 at 30 uM after 1.5 hrs by agarose-gel electrophoresis.
Series [1] can be described thus: Stability of the compound under physiological condition. In kind it is physicochemical.
A further series deals with U-87MG ATCC. Description: Cytotoxicity against human U87 cells at 10 uM after 24 hrs by MTT assay. In kind it is functional, cell-based.
The subject of the next series is ASPC1. Description: Cytotoxicity against human AsPC1 cells at 10 uM after 24 hrs by MTT assay. The format is functional, cell-based. (Formazan colour is commonly taken as a measure of viable cells.)
Another series relates to U-251. Description: Cytotoxicity against human U251 cells at 10 uM after 24 hrs by MTT assay. In kind it is functional, cell-based.

The structures appear in SMILES notation. Activity calls are given as the source filed them. The rule behind the calls is not given here.

`COC(=O)[C@H](Cc1c[nH]cn1)NCc1cc(N(C)C)cc(CN[C@@H](Cc2cn(C(c3ccccc3)(c3ccccc3)c3ccccc3)cn2)C(=O)OC)n1`: the result in the series on Escherichia coli, with U-87MG ATCC, in the series on ASPC1 and in the series on U-251 was Active. Also, the Stability result in series [1] is on record as “Stable”.

As for `COC(=O)[C@H](Cc1cn(Cc2ccccc2)cn1)NCc1cc(N(C)C)cc(CN[C@@H](Cc2cn(Cc3ccccc3)cn2)C(=O)OC)n1`, in the series on Escherichia coli, the result was Active. Moreover, the result in the series with U-87MG ATCC, in the series on ASPC1 and in the series with U-251 was inactive.

As for `COC(=O)[C@H](Cc1cn(C(c2ccccc2)(c2ccccc2)c2ccccc2)cn1)NCc1cc(N(C)C)cc(CN[C@@H](Cc2cn(C(c3ccccc3)(c3ccccc3)c3ccccc3)cn2)C(=O)OC)n1`, the result with Escherichia coli, in the series on U-87MG ATCC, in the series on ASPC1 and in the series with U-251 was Active. Also, the Stability entry in series [1] is given as “Stable”.

Take `COC(=O)[C@H](Cc1c[nH]cn1)NCc1cc(N(C)C)cc(CN[C@@H](Cc2cn(C)cn2)C(=O)OC)n1`: the outcome in the series on Escherichia coli was Active. In addition, the result in the series on U-87MG ATCC, in the series with ASPC1 and in the series with U-251 was inactive.

For the molecule `COC(=O)[C@H](Cc1cn(C)cn1)NCc1cc(N(C)C)cc(CN[C@@H](Cc2cn(C)cn2)C(=O)OC)n1`, in the series with Escherichia coli, the result was Active. The outcome in the series on U-87MG ATCC, in the series on ASPC1 and with U-251 was inactive.

Turning to `COC(=O)[C@H](Cc1c[nH]cn1)NCc1cc(N(C)C)cc(CN[C@@H](Cc2c[nH]cn2)C(=O)OC)n1`, the outcome with Escherichia coli was Active. For the same molecule, the outcome with U-87MG ATCC, in the series with ASPC1 and in the series on U-251 was inactive.
